Peptide text beside a SMILES is read from it. * marks the point of attachment. Cbz = O=C(OCc1ccccc1)*
What was measured:
[1] = tested on: dhIPSC derived hepatocytes; assay: Metabolic enzyme response to glucagon stimulation (qRT-PCR of PEPCK, G6P, IGFBP1); format: cell-based, human; details: 100 nM glucagon hydrochloride; 0, 1, 2 and 3 hours after stimulation; FIG. 16
Procedure: dhIPSC derived hepatocytes were incubated for six hours in serum-free, high-glucose DMEM supplemented with 2 mM L-glutamine, […] penicillin, 100 ug/ml streptomycin, and 0.5% Bovine Serum Albumin (all from Sigma-Aldrich). Cells were stimulated with 100 nM glucagon […] hydrochloride (Novo Nordisk, Bagsvard, Denmark) or PBS (Sigma-Aldrich) as a negative control. Total RNA was harvested using the RNeasy Kit (Qiagen, Hilden, Germany) at 0, 1, 2 or 3 hours after stimulation and purified as per manufacturer's guidelines. Reverse transcription was performed on 1 ug RNA in a 25 μl reaction mixture containing 2000 Moloney Murine Leukemia Virus Reverse Transcriptase, 500 ng random primers and 0.5 mM deoxynucleotide triphosphates (all from Promega, Wis., Ma) as per manufacturer's guidelines. cDNA was subjected to real-time quantitative PCR on an ABI7900 detection system (Applied Biosystems, Foster City, Calif.) using Tagman PCR Mastermix (Applied Biosystems) and gene-specific forward and reverse primers and fluorogenic probes. All results were normalised to human 36B4 as a reference gene. Primers and probes for PEPCK (Hs00159918—1), G6P (Hs00609178—1) and IGFBP1 (Hs00426285 ml) were purchased as premade stocks from Applied Biosystems. Oligonucleotides for 36B4 were designed in-house and synthesised by Sigma-Aldrich (Forward, 5′-[…]-3′; Reverse, 5′-[…]-3′; Probe, 5′-[JOEE][…][TAMRA]-3′).

[2] = tested on: α1-antitrypsin deficient dhIPSC derived hepatocytes; assay: proteosome blocking assay with ELISA for α1-antitrypsin; format: cell-based, human; details: MG132 added to medium overnight (16 hours), A1ATD vs control hIPSC derived hepatocytes, FIG. 10
Procedure: High binding surface COSTAR 96-well plates (Corning, N.Y., USA) were coated overnight with affinity-purified rabbit polyclonal antibodies against α1-antitrypsin (Abcam 31657, Cambridge, UK) at 2 μg/ml in carbonate/bicarbonate buffer (Na2CO3/NAHCO3, pH 9.5). After washing (0.9% w/v NaCl, 0.05% v/v Tween 20), the plates were blocked for two hours in blocking buffer (PBS, 0.25% w/v BSA, 0.05% v/v Tween 20). Samples (culture medium or cells lysed in 50 μl of Nonidet lysis buffer (150 mM NaCl, 50 mM Tris-Cl, pH 7.5, 1% (v/v) Nonidet P-40), and standards (plasma purified M or Z α1-antitrypsin) were diluted in blocking buffer and 50 μl added to each well then incubated for two hours. After washing, the wells were incubated with either 9C5 or 2C1 monoclonal antibodies (1 μg/ml diluted in blocking buffer), and incubated for two hours. Bound monoclonal antibodies were detected with rabbit anti-mouse IgG HRP-labelled antibody (Sigma Aldrich, Haverhill, UK, 1:20,000) for one hour. The reaction was developed with TMB liquid substrate (Sigma Aldrich, Haverhill, UK) for 10 minutes in the dark and the reaction was stopped with 1 M H2SO4. Absorbance was read at 450 nm on a Thermo-max microplate reader (Molecular Devices, Sunnyvale, Calif., U.S.A.). […]

glucagon hydrochloride
expression of glucagon-responsive genes PEPCK, G6P and IGFBP1 [1]: induction of expression of three canonical glucagon-responsive genes

CC(C)C[C@@H](C=O)NC(=O)[C@H](CC(C)C)NC(=O)[C@H](CC(C)C)NC(=O)OCc1ccccc1 [MG132] (Cbz-Leu-Leu-Leu-aldehyde)
intracellular α1-antitrypsin polymers after proteasome inhibition [2]: disease specific intracellular increase in α1-antitrypsin polymers

Reference: patent US9284576B2, “In vitro hepatic differentiation” (Cambride Enterprise Limited, priority 2010, dated 2016)
